In patent US11773078B2, “Furin inhibitors” (Glaxosmithkline Intellectual Property Development Limited, priority 2018, dated 2023):

Assays:
[1] = target: T1, furin (endogenous protease) in U20S cells (Homo sapiens, UniProt P09958); assay: Furin cell-based assay (image-based, Golgi-targeted GFP with BMP10 furin/PCSK cleavage site); conditions: 24-hour incubation, read-out: furin golgi cell pXC50 (converted);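 also: Read-out is mean GFP fluorescence of Golgi puncta per cell by high-content imaging, retained when furin inhibited, over an eleven-point 0.00017–10 µM series, four-parameter fit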
T1 construct: the endogenous protease cleaves GFP; endogenous in cells; host or cells: U2OS cells transduced with a BacMam reporter

[2] = target: T2, Furin (108-574-Tev-Flag-His) enzyme (Homo sapiens, UniProt P09958); assay: Furin enzyme assay; format: biochemical; conditions: for IC50: read-out: furin enzyme pIC50 (converted)
T2 construct: Furin (108-574-Tev-Flag-His) enzyme was expressed and purified from CHO cells; TEV cleavage site (C); FLAG (C); His (C); made in house; host or cells: CHO cells
Outline: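 Compounds ran as 11-point threefold dilutions (0.00017–10 μM final) against 40 pM furin, purified from CHO cells, for 2 h at room temperature. Buffer: 100 mM HEPES pH7.5 with 1 mM CaCl2 and 0.005% Triton X-100. Envision readout. Four-parameter curve gives pXC50.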

T1 sequence (P09958 108-794): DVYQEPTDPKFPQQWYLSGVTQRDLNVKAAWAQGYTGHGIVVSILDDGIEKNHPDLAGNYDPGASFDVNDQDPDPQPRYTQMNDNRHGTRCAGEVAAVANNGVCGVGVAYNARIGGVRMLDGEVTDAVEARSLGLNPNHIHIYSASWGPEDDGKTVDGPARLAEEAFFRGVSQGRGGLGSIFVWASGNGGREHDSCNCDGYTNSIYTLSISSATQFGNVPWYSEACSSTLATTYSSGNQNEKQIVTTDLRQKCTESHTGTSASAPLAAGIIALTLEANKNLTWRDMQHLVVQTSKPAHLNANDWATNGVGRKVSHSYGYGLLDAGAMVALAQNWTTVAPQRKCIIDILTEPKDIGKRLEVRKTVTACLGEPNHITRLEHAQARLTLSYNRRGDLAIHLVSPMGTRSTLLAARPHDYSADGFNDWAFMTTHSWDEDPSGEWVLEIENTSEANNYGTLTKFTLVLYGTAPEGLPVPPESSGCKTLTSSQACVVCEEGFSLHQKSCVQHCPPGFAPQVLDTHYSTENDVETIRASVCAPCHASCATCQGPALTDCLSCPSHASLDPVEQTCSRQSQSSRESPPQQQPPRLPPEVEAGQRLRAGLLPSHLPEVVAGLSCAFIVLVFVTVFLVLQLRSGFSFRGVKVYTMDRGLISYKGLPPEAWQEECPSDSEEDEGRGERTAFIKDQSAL
T2 sequence (P09958 108-574): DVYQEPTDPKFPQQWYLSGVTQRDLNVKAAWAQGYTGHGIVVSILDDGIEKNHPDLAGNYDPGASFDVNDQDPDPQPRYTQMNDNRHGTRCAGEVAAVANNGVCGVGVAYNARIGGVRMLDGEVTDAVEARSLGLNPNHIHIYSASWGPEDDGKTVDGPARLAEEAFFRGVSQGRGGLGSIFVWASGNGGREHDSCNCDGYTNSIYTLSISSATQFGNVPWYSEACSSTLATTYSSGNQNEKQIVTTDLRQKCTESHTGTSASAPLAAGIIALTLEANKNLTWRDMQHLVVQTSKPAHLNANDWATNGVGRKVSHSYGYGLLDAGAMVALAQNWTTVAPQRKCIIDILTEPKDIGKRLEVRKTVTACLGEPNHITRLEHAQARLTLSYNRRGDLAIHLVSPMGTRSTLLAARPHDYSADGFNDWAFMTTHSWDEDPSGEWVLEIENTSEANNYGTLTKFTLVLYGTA

## CS(=O)(=O)CCC1CCN(Cc2cc(Oc3ccc(N4CCN(CCC(=O)O)CC4)nc3)nc(-c3cc(Cl)cc(Cl)c3)c2)CC1 [Example 276, 3-(4-(5-((6-(3,5-dichlorophenyl)-4-((4-(2-(methylsulfonyl)ethyl)piperidin-1-yl)methyl)pyridin-2-yl)oxy)pyridin-2-yl)piperazin-1-yl)propanoic acid]
[1]
  EC50: 50.1 nM
[2]
  furin enzyme pIC50: 9

## NS(=O)(=O)CCC1CCN(Cc2cc(Oc3ccc(N4CCN(CCC(=O)O)CC4)nc3)nc(-c3cc(Cl)cc(Cl)c3)c2)CC1 [Example 277, 3-(4-(5-((6-(3,5-dichlorophenyl)-4-((4-(2-sulfamoylethyl)piperidin-1-yl)methyl)pyridin-2-yl)oxy)pyridin-2-yl)piperazin-1-yl)propanoic acid]
[1]
  EC50: 50.1 nM
[2]
  IC50: 0.0316 nM

## O=C(O)CC1CCN(Cc2cc(Oc3cnc(N4CCN(CCC5(O)CC5)CC4)nc3)nc(-c3cc(Cl)cc(Cl)c3)c2)CC1 [Example 278, 2-(1-((2-(3,5-dichlorophenyl)-6-((2-(4-(2-(1-hydroxycyclopropyl)ethyl)piperazin-1-yl)pyrimidin-5-yl)oxy)pyridin-4-yl)methyl)piperidin-4-yl)acetic acid]
[1]
  EC50: 10 nM
[2]
  furin enzyme pIC50: 9.4

## CC(C)(O)CCN1CCN(c2ncc(Oc3cc(CN4CCC(CC(=O)O)CC4)cc(-c4cc(Cl)cc(Cl)c4)n3)cn2)CC1 [Example 279, 2-(1-((2-(3,5-dichlorophenyl)-6-((2-(4-(3-hydroxy-3-methylbutyl)piperazin-1-yl)pyrimidin-5-yl)oxy)pyridin-4-yl)methyl)piperidin-4-yl)acetic acid]
[1]
  EC50: 20 nM
[2]
  furin enzyme pIC50: 8.6

## CC(C)(CO)CN1CCN(c2ncc(Oc3cc(CN4CCC(CC(=O)O)CC4)cc(-c4cc(Cl)cc(Cl)c4)n3)cn2)CC1 [Example 280, 2-(1-((2-(3,5-dichlorophenyl)-6-((2-(4-(3-hydroxy-2,2-dimethylpropyl)piperazin-1-yl)pyrimidin-5-yl)oxy)pyridin-4-yl)methyl)piperidin-4-yl)acetic acid]
[1]
  EC50: 15.8 nM
[2]
  furin enzyme pIC50: 8.3

## CC(=O)NCC1CCN(Cc2cc(Oc3ccc(N4CCN(C(C)CC(=O)O)CC4)nc3)nc(-c3cc(Cl)cc(Cl)c3)c2)CC1 (stereo not shown) [Example 281, 3-(4-(5-((4-((4-(Acetamidomethyl)piperidin-1-yl)methyl)-6-(3,5-dichlorophenyl)pyridin-2-yl)oxy)pyridin-2-yl)piperazin-1-yl)butanoic acid]
[1]
  EC50: 39.8 nM
[2]
  furin enzyme pIC50: 9.5

## CC(=O)NCC1CCN(Cc2cc(Oc3cnc(N4CCN(C(C)CC(=O)O)CC4)nc3)nc(-c3cc(Cl)cc(Cl)c3)c2)CC1 (stereo not shown) [Example 282, 3-(4-(5-((4-((4-(acetamidomethyl)piperidin-1-yl)methyl)-6-(3,5-dichlorophenyl)pyridin-2-yl)oxy)pyrimidin-2-yl)piperazin-1-yl)butanoic acid]
[1]
  EC50: 7.94 nM
[2]
  IC50: 0.2 nM

## CC(=O)NCC1CCN(Cc2cc(Oc3cnc(N4CCN(CC(C)C(=O)O)CC4)nc3)nc(-c3cc(Cl)cc(Cl)c3)c2)CC1 (stereo not shown) [Example 283, 3-(4-(5-((4-((4-(acetamidomethyl)piperidin-1-yl)methyl)-6-(3,5-dichlorophenyl)pyridin-2-yl)oxy)pyrimidin-2-yl)piperazin-1-yl)-2-methylpropanoic acid]
[1]
  EC50: 25.1 nM
[2]
  furin enzyme pIC50: 9.1

## CC(=O)NCC1CCN(Cc2cc(Oc3cnc(N4CCN(CC(C)C(N)=O)CC4)nc3)nc(-c3cc(Cl)cc(Cl)c3)c2)CC1 (stereo not shown) [Example 284, 3-(4-(5-((4-((4-(acetamidomethyl)piperidin-1-yl)methyl)-6-(3,5-dichlorophenyl)pyridin-2-yl)oxy)pyrimidin-2-yl)piperazin-1-yl)-2-methylpropanamide]
[1]
  EC50: 1.26 nM
[2]
  furin enzyme pIC50: 10.1

## CC(=O)NCC1CCN(Cc2cc(Oc3cnc(N4CCN(CCS(C)(=O)=O)CC4)nc3)nc(-c3cc(Cl)cc(Cl)c3)c2)CC1 [Example 285, N-((1-((2-(3,5-dichlorophenyl)-6-((2-(4-(2-(methylsulfonyl)ethyl)piperazin-1-yl)pyrimidin-5-yl)oxy)pyridin-4-yl)methyl)piperidin-4-yl)methyl)acetamide]
[1]
  EC50: 63.1 nM
[2]
  furin enzyme pIC50: 8.1

## CC(=O)NCC1CCN(Cc2cc(Oc3cnc(N4CCN(CCS(N)(=O)=O)CC4)nc3)nc(-c3cc(Cl)cc(Cl)c3)c2)CC1 [Example 286, N-((1-((2-(3,5-dichlorophenyl)-6-((2-(4-(2-sulfamoylethyl)piperazin-1-yl)pyrimidin-5-yl)oxy)pyridin-4-yl)methyl)piperidin-4-yl)methyl)acetamide]
[1]
  EC50: 7.94 nM
[2]
  furin enzyme pIC50: 9.4

## CC(=O)NCC1CCN(Cc2cc(Oc3ccc(N4CCN(CCS(=O)(=O)O)CC4)nc3)nc(-c3cc(Cl)cc(Cl)c3)c2)CC1 [Example 287, 2-(4-(5-((4-((4-(acetamidomethyl)piperidin-1-yl)methyl)-6-(3,5-dichlorophenyl)pyridin-2-yl)oxy)pyridin-2-yl)piperazin-1-yl)ethanesulfonic acid]
[1]
  EC50: 631 nM
[2]
  IC50: 2 nM

## CCC(CN1CCN(c2ccc(Oc3cc(CN4CCC(CNC(C)=O)CC4)cc(-c4cc(Cl)cc(Cl)c4)n3)cn2)CC1)C(=O)O (stereo not shown) [Example 288, 2-((4-(5-((4-((4-(acetamidomethyl)piperidin-1-yl)methyl)-6-(3,5-dichlorophenyl)pyridin-2-yl)oxy)pyridin-2-yl)piperazin-1-yl)methyl)butanoic acid]
[1]
  EC50: 50.1 nM
[2]
  furin enzyme pIC50: 9.4

## CC(=O)NCC1CCN(Cc2cc(Oc3ccc(N4CCN(CCS(N)(=O)=O)CC4)nc3)nc(-c3cc(Cl)cc(Cl)c3)c2)CC1 [Example 289, N-((1-((2-(3,5-dichlorophenyl)-6-((6-(4-(2-sulfamoylethyl)piperazin-1-yl)pyridin-3-yl)oxy)pyridin-4-yl)methyl)piperidin-4-yl)methyl)acetamide]
[1]
  EC50: 5.01 nM
[2]
  furin enzyme pIC50: 8.6

## CNC(=O)NCC1CCN(Cc2cc(Oc3ccc(N4CCN(CCS(C)(=O)=O)CC4)nc3)nc(-c3cc(Cl)cc(Cl)c3)c2)CC1 [Example 290, 1-((1-((2-(3,5-dichlorophenyl)-6-((6-(4-(2-(methylsulfonyl)ethyl)piperazin-1-yl)pyridin-3-yl)oxy)pyridin-4-yl)methyl)piperidin-4-yl)methyl)-3-methylurea]
[1]
  EC50: 15.8 nM
[2]
  furin enzyme pIC50: 8.2

## CNC(=O)NCC1CCN(Cc2cc(Oc3cnc(N4CCN(CC(C)C(N)=O)CC4)nc3)nc(-c3cc(Cl)cc(Cl)c3)c2)CC1 (stereo not shown) [Example 291, 3-(4-(5-((6-(3,5-dichlorophenyl)-4-((4-((3-methylureido)methyl)piperidin-1-yl)methyl)pyridin-2-yl)oxy)pyrimidin-2-yl)piperazin-1-yl)-2-methylpropanamide]
[1]
  EC50: 7.94 nM
[2]
  furin enzyme pIC50: 10.7

## CNC(=O)NCC1CCN(Cc2cc(Oc3cnc(N4CCN(CC(C)C(=O)O)CC4)nc3)cc(-c3cc(Cl)cc(Cl)c3)c2)CC1 (stereo not shown) [Example 292, 3-(4-(5-((3′,5′-dichloro-5-((4-((3-methylureido)methyl)piperidin-1-yl)methyl)-[1,1′-biphenyl]-3-yl)oxy)pyrimidin-2-yl)piperazin-1-yl)-2-methylpropanoic acid]
[1]
  EC50: 50.1 nM
[2]
  furin enzyme pIC50: 9.4
